Source: ChEMBL document CHEMBL1201862, “PubChem BioAssay data set” (2004)
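Five concentrations, 48 hours, 96-well plates. At the GI50, growth is halved.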 The source made the active and inactive calls. Cut-off read from the data, not from the text of the source: active = GI50 up to about 1.1 µM and inactive = higher. Starred links: 1 amine or outer side, 2 acyl side, 3 side chain; linkers in the order of their positions; H or OH if unused. Residues, ends and D or L forms follow the SMILES beside them. Peptide text beside a SMILES is read from it. * marks the point of attachment. *: point of attachment. γGlu = O=C(O)[CH](CCC(=O)[*:2])N[*:1]; Cbz = O=C(OCc1ccccc1)*; NHNH2 = NN*; NHOH = ON*

Key:
Assay in all cases: inhibition of tumour cell growth, NCI panel, 48 h
LOX IMVI = tested on: LOX IMVI
ACHN = tested on: ACHN
MDA-MB-435 = tested on: MDA-MB-435
HOP-62 = tested on: HOP-62
RPMI-8226 = tested on: RPMI-8226
KM12 = tested on: KM12
RXF 393 = tested on: RXF 393
SR = tested on: SR
EKVX = tested on: EKVX
UACC-62 = tested on: UACC-62
HT-29 = tested on: HT-29
HCT-116 = tested on: HCT-116
786-0 = tested on: 786-0
A549 = tested on: A549
OVCAR-5 = tested on: OVCAR-5
COLO 205 = tested on: COLO 205
NCI-H522 = tested on: NCI-H522
OVCAR-4 = tested on: OVCAR-4
NCI-H226 = tested on: NCI-H226
NCI/ADR-RES = tested on: NCI/ADR-RES

Measured: GI50

CC1CC/C(=C\c2ccc(F)cc2)C2=C1C(c1ccc(F)cc1)n1c(s/c(=C/c3cccc(Br)c3)c1=O)=N2 (stereo not drawn)
inactive: LOX IMVI > 100 µM | ACHN > 100 µM | MDA-MB-435 > 100 µM | HOP-62 > 100 µM | RPMI-8226 > 100 µM | KM12 > 100 µM | RXF 393 > 100 µM | SR > 100 µM | EKVX > 100 µM | UACC-62 > 100 µM | HT-29 > 100 µM | HCT-116 > 100 µM | 786-0 > 100 µM | A549 > 100 µM | OVCAR-5 > 100 µM

COc1ccc(C(NS(=O)(=O)c2ccc(C)cc2)c2c(C(CBr)OC)c3ccccc3n2S(=O)(=O)c2ccccc2)cc1OC (stereo not drawn)
inactive: LOX IMVI > 100 µM | COLO 205 > 100 µM | ACHN > 100 µM | NCI-H522 > 100 µM | MDA-MB-435 > 100 µM | OVCAR-4 > 100 µM | HOP-62 > 100 µM | KM12 > 100 µM | RXF 393 > 100 µM | EKVX > 100 µM | UACC-62 > 100 µM | HT-29 > 100 µM | NCI-H226 > 100 µM | HCT-116 > 100 µM | NCI/ADR-RES > 100 µM | 786-0 > 100 µM | A549 > 100 µM | OVCAR-5 > 100 µM

Cn1c(=O)c2nc(CCCCC(=O)O)[nH]c2n(C)c1=O
inactive: LOX IMVI > 100 µM | ACHN > 100 µM | NCI-H522 > 100 µM | MDA-MB-435 > 100 µM | OVCAR-4 > 100 µM | HOP-62 > 100 µM | KM12 > 100 µM | RXF 393 > 100 µM | EKVX > 100 µM | UACC-62 > 100 µM | HT-29 > 100 µM | NCI-H226 > 100 µM | HCT-116 > 100 µM | NCI/ADR-RES > 100 µM | 786-0 > 100 µM | A549 > 100 µM | OVCAR-5 > 100 µM

Cc1cc(C)nc(NS(=O)(=O)c2ccc(NN=c3c4ccccc4n(C)c4ccccc34)cc2)n1
inactive: LOX IMVI 23.7 µM | COLO 205 29.7 µM | ACHN 21.6 µM | NCI-H522 13.8 µM | MDA-MB-435 23.8 µM | OVCAR-4 23.6 µM | HOP-62 60.5 µM | RPMI-8226 27.5 µM | KM12 52.7 µM | RXF 393 7.62 µM | EKVX 26.4 µM | UACC-62 20.8 µM | HT-29 33.3 µM | NCI-H226 40.2 µM | HCT-116 25.7 µM | NCI/ADR-RES 38.2 µM | 786-0 30.2 µM | A549 35.4 µM | OVCAR-5 26.9 µM

CCOC(=O)CNC(=O)C(CCC(=O)NO)NC(=O)CCC(N)C(=O)O (stereo not drawn) (γGlu-Glu(NHOH)-Gly-OEt; configuration not given here)
inactive: LOX IMVI > 100 µM | COLO 205 > 100 µM | ACHN > 100 µM | NCI-H522 > 100 µM | MDA-MB-435 > 100 µM | OVCAR-4 > 100 µM | HOP-62 > 100 µM | RPMI-8226 > 100 µM | KM12 > 100 µM | RXF 393 > 100 µM | EKVX > 100 µM | UACC-62 > 100 µM | HT-29 > 100 µM | NCI-H226 > 100 µM | HCT-116 > 100 µM | NCI/ADR-RES > 100 µM | 786-0 > 100 µM | A549 > 100 µM | OVCAR-5 > 100 µM

COC(=O)[C@@H]1C[C@H]2[C@H](c3ccccc3Br)[C@@H](OC(C)=O)[C@@H](OCc3ccccc3)ON2O1
inactive: LOX IMVI > 100 µM | COLO 205 > 100 µM | ACHN > 100 µM | MDA-MB-435 > 100 µM | OVCAR-4 > 100 µM | HOP-62 > 100 µM | KM12 > 100 µM | RXF 393 > 100 µM | SR > 100 µM | EKVX > 100 µM | UACC-62 > 100 µM | HT-29 > 100 µM | HCT-116 > 100 µM | NCI/ADR-RES > 100 µM | 786-0 > 100 µM | A549 > 100 µM | OVCAR-5 > 100 µM

CCOC(=O)c1nc(SC)sc1NC(=O)c1ccc(OC)cc1
inactive: LOX IMVI > 100 µM | COLO 205 28.8 µM | ACHN 47.8 µM | NCI-H522 > 100 µM | MDA-MB-435 > 100 µM | OVCAR-4 29.2 µM | HOP-62 34.7 µM | RPMI-8226 > 100 µM | KM12 > 100 µM | RXF 393 33.4 µM | EKVX > 100 µM | UACC-62 > 100 µM | HT-29 66.2 µM | NCI-H226 28.1 µM | HCT-116 19.5 µM | NCI/ADR-RES > 100 µM | 786-0 20.5 µM | A549 29.7 µM | OVCAR-5 > 100 µM

OCCN(CCO)c1ncnc2c1sc(=S)n2-c1ccccc1
inactive: LOX IMVI > 100 µM | COLO 205 > 100 µM | ACHN > 100 µM | NCI-H522 > 100 µM | OVCAR-4 > 100 µM | HOP-62 > 100 µM | RPMI-8226 > 100 µM | KM12 > 100 µM | RXF 393 > 100 µM | SR > 100 µM | EKVX > 100 µM | UACC-62 > 100 µM | HT-29 > 100 µM | NCI-H226 > 100 µM | HCT-116 > 100 µM | 786-0 > 100 µM | A549 > 100 µM | OVCAR-5 > 100 µM

NCCNc1cccc2ccccc12
inactive: LOX IMVI > 100 µM | COLO 205 > 100 µM | ACHN > 100 µM | NCI-H522 > 100 µM | OVCAR-4 > 100 µM | HOP-62 > 100 µM | RPMI-8226 > 100 µM | KM12 > 100 µM | RXF 393 > 100 µM | SR > 100 µM | EKVX > 100 µM | UACC-62 > 100 µM | HT-29 > 100 µM | NCI-H226 > 100 µM | HCT-116 > 100 µM | 786-0 > 100 µM | A549 > 100 µM | OVCAR-5 > 100 µM

COc1ccc(C2=NN(C(=O)c3ccccc3)C(O)(c3cc(F)c(Cl)cc3Cl)C2)cc1OC (stereo not drawn)
inactive: LOX IMVI 97.1 µM | COLO 205 > 100 µM | ACHN 32.5 µM | NCI-H522 56.1 µM | MDA-MB-435 31.8 µM | OVCAR-4 18.5 µM | HOP-62 17.2 µM | RPMI-8226 38 µM | KM12 > 100 µM | RXF 393 18.9 µM | EKVX 32.7 µM | UACC-62 45.6 µM | HT-29 23.5 µM | NCI-H226 > 100 µM | HCT-116 50 µM | NCI/ADR-RES 62.1 µM | 786-0 30.3 µM | A549 93.8 µM | OVCAR-5 71.3 µM

O=C1N/C(=N/N=C/C(O)C(O)C(O)C(O)CO)N/C1=C\c1c[nH]c2ccccc12 (stereo not drawn)
inactive: LOX IMVI > 100 µM | COLO 205 > 100 µM | ACHN > 100 µM | NCI-H522 54.1 µM | MDA-MB-435 > 100 µM | OVCAR-4 > 100 µM | HOP-62 > 100 µM | RPMI-8226 89.7 µM | KM12 52.4 µM | RXF 393 > 100 µM | EKVX 34.6 µM | UACC-62 > 100 µM | HT-29 57.7 µM | NCI-H226 > 100 µM | HCT-116 > 100 µM | NCI/ADR-RES > 100 µM | 786-0 > 100 µM | A549 > 100 µM | OVCAR-5 > 100 µM

C/C(=N\NC(=N)N)C(CN1CCOCC1)C(c1ccccc1)c1c(O)c2ccccc2oc1=O (stereo not drawn)
inactive: LOX IMVI > 100 µM | COLO 205 49.4 µM | ACHN > 100 µM | NCI-H522 > 100 µM | OVCAR-4 61.9 µM | HOP-62 > 100 µM | RPMI-8226 85.9 µM | KM12 > 100 µM | RXF 393 29 µM | SR 80 µM | EKVX > 100 µM | UACC-62 81.3 µM | HT-29 > 100 µM | NCI-H226 > 100 µM | HCT-116 90.6 µM | 786-0 > 100 µM | A549 > 100 µM | OVCAR-5 > 100 µM

CCOC(=O)C(Cc1ccc(OC(=O)c2ccc(OC)cc2)cc1)NC(=O)C(F)(F)F (stereo not drawn)
inactive: LOX IMVI > 100 µM | COLO 205 > 100 µM | ACHN 53.6 µM | NCI-H522 > 100 µM | MDA-MB-435 > 100 µM | OVCAR-4 87.7 µM | HOP-62 35.5 µM | RPMI-8226 > 100 µM | KM12 > 100 µM | RXF 393 27.9 µM | EKVX > 100 µM | UACC-62 > 100 µM | HT-29 > 100 µM | NCI-H226 > 100 µM | HCT-116 > 100 µM | NCI/ADR-RES > 100 µM | 786-0 > 100 µM | A549 > 100 µM | OVCAR-5 > 100 µM

COc1ccc(C[C@H]2COC(=O)[C@@H]2Cc2ccccc2)cc1OC
inactive: LOX IMVI > 100 µM | ACHN > 100 µM | HOP-62 > 100 µM | RPMI-8226 > 100 µM | KM12 > 100 µM | SR > 100 µM | EKVX > 100 µM | HT-29 > 100 µM | NCI-H226 > 100 µM | HCT-116 > 100 µM | NCI/ADR-RES > 100 µM | 786-0 > 100 µM | A549 > 100 µM | OVCAR-5 > 100 µM

COC(=O)CC(NC(=O)OCc1ccccc1)C(=O)NC(CC(=O)OC)C(=O)NC(CC(=O)OC)C(=O)NC(CC(=O)OC)C(=O)NC(CC(=O)OC)C(=O)NC(CC(=O)OC)C(=O)NN (stereo not drawn) (Cbz-D(OMe)D(OMe)D(OMe)D(OMe)D(OMe)D(OMe)-NHNH2; configuration not given here)
inactive: LOX IMVI > 100 µM | COLO 205 > 100 µM | ACHN > 100 µM | MDA-MB-435 > 100 µM | OVCAR-4 > 100 µM | HOP-62 > 100 µM | RPMI-8226 > 100 µM | KM12 > 100 µM | SR > 100 µM | UACC-62 > 100 µM | HT-29 > 100 µM | HCT-116 > 100 µM | 786-0 > 100 µM | OVCAR-5 > 100 µM
